According to PubChem BioAssay AID2060501 (Molecular Pharmacology Branch, DTP, NCI, 2025):

System: 282377-053-R-J1-PDC complex spheroids, viability
Experiment: Anticancer human tumor 282377-053-R-J1-PDC patient-derived colon adenocarcinoma cell line growth inhibition [GQUAD]
Conditions: for IC50: curve of first compound; for viability, T/C: stronger effect = lower value
Method in brief: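 Viability of tumor cells grown as complex spheroids with endothelial and stromal cells, exposed to drug combinations. Top concentration at or near clinical Cmax (else 10 microM), diluted in half-log increments.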
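Note: spheroids exposed to compounds for 7 days before readout.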
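Throughout, for viability, T/C: percent of vehicle DMSO control viability with 100% = untreated-like growth.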

## CC1COCCN1c1cc(C2(S(C)(=N)=O)CC2)nc(-c2ccnc3[nH]ccc23)n1 (configuration not stated) + CN(C)c1ccc(Nc2c3ccc(NC(=O)CCN4CCCC4)cc3nc3cc(NC(=O)CCN4CCCC4)ccc23)cc1
Second compound 0.0316 µM
  IC50: 8.45 µM
Second compound 0.1 µM
  IC50: 6.78 µM
Second compound 0.316 µM
  IC50: 6.09 µM
Second compound 1 µM
  IC50: > 10 µM
Second compound 3.16 µM
  IC50: > 10 µM
Second compound 10 µM
  IC50: > 10 µM
Second compound 0.0316 µM, first compound 0.0316 µM
  viability, T/C: 102%
Second compound 0.0316 µM, first compound 0.1 µM
  viability, T/C: 90.3%
Second compound 0.0316 µM, first compound 0.316 µM
  viability, T/C: 73%
Second compound 0.0316 µM, first compound 1 µM
  viability, T/C: 79.6%
Second compound 0.0316 µM, first compound 3.16 µM
  viability, T/C: 67.8%
Second compound 0.0316 µM, first compound 10 µM
  viability, T/C: 42.2%
Second compound 0.1 µM, first compound 0.0316 µM
  viability, T/C: 95.1%
Second compound 0.1 µM, first compound 0.1 µM
  viability, T/C: 77.2%
Second compound 0.1 µM, first compound 0.316 µM
  viability, T/C: 81.2%
Second compound 0.1 µM, first compound 1 µM
  viability, T/C: 76.5%
Second compound 0.1 µM, first compound 3.16 µM
  viability, T/C: 69.3%
Second compound 0.1 µM, first compound 10 µM
  viability, T/C: 40.5%
Second compound 0.316 µM, first compound 0.0316 µM
  viability, T/C: 85.5%
Second compound 0.316 µM, first compound 0.1 µM
  viability, T/C: 83.3%
Second compound 0.316 µM, first compound 0.316 µM
  viability, T/C: 74.4%
Second compound 0.316 µM, first compound 1 µM
  viability, T/C: 76.2%
Second compound 0.316 µM, first compound 3.16 µM
  viability, T/C: 61.8%
Second compound 0.316 µM, first compound 10 µM
  viability, T/C: 40.8%
Second compound 1 µM, first compound 0.0316 µM
  viability, T/C: 89.8%
Second compound 1 µM, first compound 0.1 µM
  viability, T/C: 83.7%
Second compound 1 µM, first compound 0.316 µM
  viability, T/C: 94.2%
Second compound 1 µM, first compound 1 µM
  viability, T/C: 67.6%
Second compound 1 µM, first compound 3.16 µM
  viability, T/C: 58.8%
Second compound 1 µM, first compound 10 µM
  viability, T/C: 46.2%
Second compound 3.16 µM, first compound 0.0316 µM
  viability, T/C: 86%
Second compound 3.16 µM, first compound 0.1 µM
  viability, T/C: 89.2%
Second compound 3.16 µM, first compound 0.316 µM
  viability, T/C: 86.3%
Second compound 3.16 µM, first compound 1 µM
  viability, T/C: 68.5%
Second compound 3.16 µM, first compound 3.16 µM
  viability, T/C: 64.4%
Second compound 3.16 µM, first compound 10 µM
  viability, T/C: 49.6%
Second compound 10 µM, first compound 0.0316 µM
  viability, T/C: 82.7%
Second compound 10 µM, first compound 0.1 µM
  viability, T/C: 88.4%
Second compound 10 µM, first compound 0.316 µM
  viability, T/C: 116%
Second compound 10 µM, first compound 1 µM
  viability, T/C: 59.7%
Second compound 10 µM, first compound 3.16 µM
  viability, T/C: 80%
Second compound 10 µM, first compound 10 µM
  viability, T/C: 56%
